Source: patent US5536750A, “Inhibitors of farnesyl-protein transferase” (Merck & Co., Inc., priority 1994, dated 1996)

Key:
Human FPTase = target: T1, Human FPTase (Homo sapiens, UniProt P49354+P49356); test: In vitro inhibition of ras farnesyl transferase, recombinant human FPTase, Ras-CVIM and [3H]-FPP; format: biochemical; settings: 100 nM Ras-CVIM, 30 min, read-out: IC50, inhibition of RAS farnesylation (concentration giving 50% inhibition of FTase)
T1 construct: made in house

[1] = system: Ras farnesylation (viral Ha-ras p21) in the v-ras cell line; test: In vivo ras farnesylation assay in the v-ras cell line; format: cell-based; settings: v-ras cells; 4 hours at 37° C. then additional 20 hours with [35S]methionine; read-out: IC50, inhibition of Ras farnesylation in the v-ras cell line
Method: The cell line used in this assay was the v-ras line, which expressed viral Ha-ras p21. The assay was performed essentially as described in DeClue, J. E. et. al., Cancer Research 51:712-717, (1991). Cells in 10 cm dishes at 50-75% confluency were treated with the test s compound (final concentration of solvent, methanol or dimethyl sulfoxide, was 0.1%). After 4 hours at 37° C., the cells were labelled in 3 ml methionine-free DMEM supplemented with 10% regular DMEM, 2% fetal bovine serum and 400 μCi[^35 S]methionine (1000 Ci/mmol). After an additional 20 hours, the cells were lysed in 1 ml lysis buffer (1% NP40/20 mM HEPES, pH 7.5/5 mM MgCl2 /1 mM DTT/10 μg/ml aprotinen/2 μg/ml leupeptin/2 μg/ml antipain/0.5 mM PMSF) and the lysates cleared by centrifugation at 100,000 × g for 45 min. Aliqouts of lysates containing equal numbers of acid-precipitable counts were bought to 1 ml with IP buffer (lysis buffer lacking DTT) and immunoprecipitated with the ras-specific monoclonal antibody Y13-259 (Furth, M. E. et. al., J. Virol. 43:294-304, (1982)). Following a 2 hour antibody incubation at 4° C., […] of a 25% suspension of protein A-Sepharose coated with rabbit anti rat IgG was added for 45 min. […]

Ras farnesylation = settings: Hancock et al., Casey et al., Schafer et al.; cited from earlier work
Bovine FPTase = target: T2, Bovine FPTase (Bos taurus, UniProt P29702+P49355); test: In vitro inhibition of ras farnesyl transferase, partially purified bovine FPTase, Ras-CVLS and [3H]-FPP; format: biochemical; settings: 650 nM Ras-CVLS, pH 7.4, 31° C., 60 min, read-out: IC50, inhibition of RAS farnesylation (concentration giving 50% inhibition of FTase)
T2 construct: Partially purified bovine FPTase; from tissue
Method: Assays of farnesyl-protein transferase. Partially purified bovine FPTase and Ras peptides (Ras-CVLS, Ras-CVIM and RAS-CAIL) were prepared as described by Schaber et al., J. Biol. Chem. 265:14701-14704 (1990), Pompliano, et al., Biochemistry 31:3800 (1992) and Gibbs et at., PNAS U.S.A. 86:6630-6634 (1989), respectively. Bovine FPTase was assayed in a volume of 100 μl containing 100 mM N-(2-hydroxy ethyl) piperazine-N'-(2-ethane sulfonic acid) (HEPES), pH 7.4, 5 mM MgCl2, 5 mM dithiothreitol (DTT), […] [^3 H]-farnesyl diphosphate ([^3 H]-FPP; […], New England Nuclear), 650 nM Ras-CVLS and 10 μg/ml FPTase at 31° C. for 60 min. Reactions were initiated with FPTase and stopped with 1 ml of 1.0M HCL in ethanol. Precipitates were collected onto filter-mats using a TomTec Mach II cell harvestor, washed with 100% ethanol, dried and counted in an LKB β-plate counter. The assay was linear with respect to both substrates, FPTase levels and time; less than 10% of the [ ^3 H]-FPP was utilized during the reaction period. Purified compounds were dissolved in 100% dimethyl sulfoxide (DMSO) and were diluted 20-fold into the assay. Percentage inhibition is measured by the amount of incorporation of farnesyl in the presence of the test compound when compared to the amount of incorporation in the absence of the test compound.

SMILES | IC50 [1] [µM] | Inhibition of Ras farnesylation in vivo (Ras farnesylation) | further results
CC[C@H](C)[C@@H](C(=O)N[C@@H](CCSC)C(=O)O)N(C)C[C@@H](NC[C@@H](N)CS)[C@@H](C)CC [N-[2(S)-(2(R)-amino-3-mercaptopropylamino)-3(S)-methyl-pentyl]-N-methyl-isoleucyl-methionine] |  |  | IC50 (Human FPTase): 0.02 µM
CC[C@H](C)[C@@H](C(=O)N[C@@H](CCSC)C(=O)OC)N(C)C[C@@H](NC[C@@H](N)CS)[C@@H](C)CC [N-[2(S)-(2(R)-amino-3-mercaptopropylamino)-3(S)-methyl-pentyl]-N-methyl-isoleucyl-methionine methyl ester] | 5 |  | 
CC[C@H](C)C(=O)O[C@H]1C[C@@H](C)C=C2C=C[C@H](C)[C@H](CC[C@@H]3C[C@@H](O)CC(=O)O3)[C@H]21 [lovastatin] |  | Inhibition of Ras farnesylation in vivo has been demonstrated | 
CC[C@H](C)[C@@H](C(=O)N[C@@H](CCO)C(=O)O)N(C)C[C@@H](NC[C@@H](N)CS)[C@@H](C)CC [N-[2(S)-(2(R)-Amino-3-mercaptopropylamino)-3(S)-methylpentyl]-N-methyl-isoleucyl-homoserine] |  |  | IC50 (Bovine FPTase): 0.072 µM
CC[C@H](C)[C@@H](C(=O)N[C@H]1CCOC1=O)N(C)C[C@@H](NC[C@@H](N)CS)[C@@H](C)CC [N-[2(S)-(2(R)-Amino-3-mercaptopropylamino)-3(S)-methylpentyl]-N-methyl-isoleucyl-homoserine lactone] | 50 |  | 
CC[C@H](C)C(=O)O[C@H]1CCC=C2C=C[C@H](C)[C@H](CC[C@@H]3C[C@@H](O)CC(=O)O3)[C@H]21 [compactin] |  | Inhibition of Ras farnesylation in vivo has been demonstrated | 
